Measurements published in PubChem BioAssay AID1259407 (Chemical Carcinogenesis Research Information System (CCRIS), 2018).
The source made the active and inactive calls. How the calls were made is not given here.

System: CCRIS mutagenicity, Ames/micronucleus/aberration tests
Test: CCRIS mutagenicity studies
[1] = Test System: AMES SALMONELLA TYPHIMURIUM, Strain/Indicator: TA97, Metabolic Activation: NONE, Method: PREINCUBATION
[2] = Test System: AMES SALMONELLA TYPHIMURIUM, Strain/Indicator: TA98, Metabolic Activation: NONE, Method: STANDARD PLATE
[3] = Test System: AMES SALMONELLA TYPHIMURIUM, Strain/Indicator: TA98, Metabolic Activation: RAT, LIVER, S-9, AROCLOR 1254, Method: STANDARD PLATE
[4] = Test System: AMES SALMONELLA TYPHIMURIUM, Strain/Indicator: TA100, Metabolic Activation: NONE, Method: PREINCUBATION
[5] = Test System: AMES SALMONELLA TYPHIMURIUM, Strain/Indicator: TA100, Metabolic Activation: NONE, Method: STANDARD PLATE
[6] = Test System: AMES SALMONELLA TYPHIMURIUM, Strain/Indicator: TA100, Metabolic Activation: RAT, LIVER, S-9, AROCLOR 1254, Method: STANDARD PLATE
[7] = Test System: AMES SALMONELLA TYPHIMURIUM, Strain/Indicator: TA1535, Metabolic Activation: NONE, Method: STANDARD PLATE
[8] = Test System: AMES SALMONELLA TYPHIMURIUM, Strain/Indicator: TA1535, Metabolic Activation: RAT, LIVER, S-9, AROCLOR 1254, Method: STANDARD PLATE
[9] = Test System: AMES SALMONELLA TYPHIMURIUM, Strain/Indicator: TA1537, Metabolic Activation: NONE, Method: STANDARD PLATE
[10] = Test System: AMES SALMONELLA TYPHIMURIUM, Strain/Indicator: TA1537, Metabolic Activation: RAT, LIVER, S-9, AROCLOR 1254, Method: STANDARD PLATE
[11] = Test System: AMES SALMONELLA TYPHIMURIUM, Strain/Indicator: TA1538, Metabolic Activation: NONE, Method: STANDARD PLATE
[12] = Test System: AMES SALMONELLA TYPHIMURIUM, Strain/Indicator: TA1538, Metabolic Activation: RAT, LIVER, S-9, AROCLOR 1254, Method: STANDARD PLATE
[13] = Test System: AMES SALMONELLA TYPHIMURIUM, Strain/Indicator: TA97, Metabolic Activation: NONE, Method: STANDARD PLATE

SMILES: C1OCOCO1
- mutagenic call (Test System: AMES SALMONELLA TYPHIMURIUM, Strain/Indicator: TA97, Metabolic Activation: HAMSTER, LIVER, S-9, AROCLOR 1254 (10 OR 30%), Method: PREINCUBATION): inactive; negative
- mutagenic call [1]: inactive; negative
- mutagenic call (Test System: AMES SALMONELLA TYPHIMURIUM, Strain/Indicator: TA97, Metabolic Activation: RAT, LIVER, S-9, AROCLOR 1254 (10 OR 30%), Method: PREINCUBATION): inactive; negative
- mutagenic call (Test System: AMES SALMONELLA TYPHIMURIUM, Strain/Indicator: TA98, Metabolic Activation: HAMSTER, LIVER, S-9, AROCLOR 1254 (10 OR 30%), Method: PREINCUBATION): inactive; negative
- mutagenic call (Test System: AMES SALMONELLA TYPHIMURIUM, Strain/Indicator: TA98, Metabolic Activation: NONE, Method: PREINCUBATION): inactive; negative
- mutagenic call [2]: inactive; negative
- mutagenic call (Test System: AMES SALMONELLA TYPHIMURIUM, Strain/Indicator: TA98, Metabolic Activation: RAT, LIVER, S-9, AROCLOR 1254 (10 OR 30%), Method: PREINCUBATION): inactive; negative
- mutagenic call [3]: inactive; negative
- mutagenic call (Test System: AMES SALMONELLA TYPHIMURIUM, Strain/Indicator: TA100, Metabolic Activation: HAMSTER, LIVER, S-9, AROCLOR 1254 (10 OR 30%), Method: PREINCUBATION): inactive; negative
- mutagenic call [4]: inactive; negative
- mutagenic call [5]: inactive; negative
- mutagenic call (Test System: AMES SALMONELLA TYPHIMURIUM, Strain/Indicator: TA100, Metabolic Activation: RAT, LIVER, S-9, AROCLOR 1254 (10 OR 30%), Method: PREINCUBATION): inactive; negative
- mutagenic call [6]: inactive; negative
- mutagenic call (Test System: AMES SALMONELLA TYPHIMURIUM, Strain/Indicator: TA1535, Metabolic Activation: HAMSTER, LIVER, S-9, AROCLOR 1254 (10 OR 30%), Method: PREINCUBATION): inactive; negative
- mutagenic call (Test System: AMES SALMONELLA TYPHIMURIUM, Strain/Indicator: TA1535, Metabolic Activation: NONE, Method: PREINCUBATION): inactive; negative
- mutagenic call [7]: inactive; negative
- mutagenic call (Test System: AMES SALMONELLA TYPHIMURIUM, Strain/Indicator: TA1535, Metabolic Activation: RAT, LIVER, S-9, AROCLOR 1254 (10 OR 30%), Method: PREINCUBATION): inactive; negative
- mutagenic call [8]: inactive; negative
- mutagenic call [9]: inactive; negative
- mutagenic call [10]: inactive; negative
- mutagenic call [11]: inactive; negative
- mutagenic call [12]: inactive; negative

SMILES: Fc1ccccn1
- mutagenic call [13]: inactive; negative
- mutagenic call (Test System: AMES SALMONELLA TYPHIMURIUM, Strain/Indicator: TA97, Metabolic Activation: RAT, LIVER, S-9, AROCLOR 1254, Method: STANDARD PLATE): inactive; negative
- mutagenic call [2]: inactive; negative
- mutagenic call [3]: active; positive
- mutagenic call [5]: inactive; negative
- mutagenic call [6]: inactive; negative
- mutagenic call (Test System: AMES SALMONELLA TYPHIMURIUM, Strain/Indicator: TA102, Metabolic Activation: NONE, Method: STANDARD PLATE): inactive; negative
- mutagenic call (Test System: AMES SALMONELLA TYPHIMURIUM, Strain/Indicator: TA102, Metabolic Activation: RAT, LIVER, S-9, AROCLOR 1254, Method: STANDARD PLATE): inactive; negative

SMILES: Cc1ccc2cc3ccccc3cc2c1
- mutagenic call [13]: inactive; negative
- mutagenic call (Test System: AMES SALMONELLA TYPHIMURIUM, Strain/Indicator: TA97, Metabolic Activation: RAT, LIVER, S-9, PCB, Method: STANDARD PLATE): active; positive
- mutagenic call [2]: inactive; negative
- mutagenic call [3]: inactive; negative
- mutagenic call (Test System: AMES SALMONELLA TYPHIMURIUM, Strain/Indicator: TA98, Metabolic Activation: RAT, LIVER, S-9, PCB, Method: STANDARD PLATE): inactive; negative
- mutagenic call [5]: inactive; negative
- mutagenic call [6]: inactive; negative
- mutagenic call (Test System: AMES SALMONELLA TYPHIMURIUM, Strain/Indicator: TA100, Metabolic Activation: RAT, LIVER, S-9, PCB, Method: STANDARD PLATE): inactive; negative

SMILES: CC[N+](CC)=c1ccc2nc3c(cc(N)c4ccccc43)oc-2c1
- mutagenic call [6]: active; positive
- mutagenic call [11]: inactive; negative
- mutagenic call [12]: active; positive

SMILES: O=S(=O)(O)c1cccc2cccnc12
- mutagenic call [2]: inactive; negative
- mutagenic call [3]: inactive; negative
- mutagenic call [5]: inactive; negative
- mutagenic call [6]: inactive; negative
- mutagenic call [7]: inactive; negative
- mutagenic call [8]: inactive; negative
- mutagenic call [9]: inactive; negative
- mutagenic call [10]: inactive; negative

SMILES: CCOC(=O)CCBr
- mutagenic call (End Point: IN VITRO CHROMOSOMAL ABERRATIONS, Test System: CHL CELLS, Metabolic Activation: NONE): active; positive (structural changes)
- mutagenic call (End Point: IN VITRO CHROMOSOMAL ABERRATIONS, Test System: CHL CELLS, Metabolic Activation: RAT, LIVER, S-9, SODIUM PHENOBARBITAL AND 5,6-BENZOFLAVONE): active; positive (structural changes)

SMILES: c1ccc2[nH]ccc2c1
- mutagenic call [1]: inactive; negative
- mutagenic call (Test System: AMES SALMONELLA TYPHIMURIUM, Strain/Indicator: TA97, Metabolic Activation: RAT, LIVER, S-9, AROCLOR 1254, Method: PREINCUBATION): inactive; negative
- mutagenic call [4]: inactive; negative
- mutagenic call (Test System: AMES SALMONELLA TYPHIMURIUM, Strain/Indicator: TA102, Metabolic Activation: NONE, Method: PREINCUBATION): inactive; negative
- mutagenic call (Test System: AMES SALMONELLA TYPHIMURIUM, Strain/Indicator: TA102, Metabolic Activation: RAT, LIVER, S-9, AROCLOR 1254, Method: PREINCUBATION): inactive; negative

SMILES: Fc1cc2cccnc2c2ncccc12
- mutagenic call (Test System: AMES SALMONELLA TYPHIMURIUM, Strain/Indicator: TA100, Metabolic Activation: RAT, LIVER, S-9, PHENOBARBITAL AND 5,6-BENZOFLAVONE, Method: PREINCUBATION): active; positive

SMILES: O=[N+]([O-])c1cccc(S(=O)(=O)OC[C@@H]2CO2)c1
- mutagenic call [5]: active; positive

SMILES: COC(=O)C1Cc2c([nH]c3ccc([N+](=O)[O-])cc23)C(C)N1N=O (centres undefined)
- mutagenic call (Test System: AMES SALMONELLA TYPHIMURIUM, Strain/Indicator: TA98(NR), Metabolic Activation: NONE, Method: STANDARD PLATE): active; positive
- mutagenic call (Test System: AMES SALMONELLA TYPHIMURIUM, Strain/Indicator: TA98(NR), Metabolic Activation: RAT, LIVER, S-9, AROCLOR 1254, Method: STANDARD PLATE): inactive; negative

SMILES: CCCCCc1ccco1
- mutagenic call (Test System: CHINESE HAMSTER V-79, Strain/Indicator: V-79 (HPRT)/6-THIOGUANINE, Metabolic Activation: NONE, Method: STANDARD PLATE): inactive; negative
- mutagenic call (Test System: CHINESE HAMSTER V-79, Strain/Indicator: V-79 (HPRT)/6-THIOGUANINE, Metabolic Activation: RAT LIVER S-9, Method: STANDARD PLATE): inactive; negative

SMILES: O=C(O)c1ccccc1C1=c2cc3c4c(c2Oc2c1cc1c5c2CCCN5CCC1)CCC[N+]=4CCC3
- mutagenic call [11]: inactive; negative
- mutagenic call [12]: inactive; negative
